Test results published in the NIST ThermoML archive (doi:10.1021/je049899g).

Legend:
[1] = 298.15 K, 101.33 kPa, Liquid; for viscosity: Capillary tube (Ostwald / Ubbelohde) method; for speed of sound: Sing-around technique in a fixed-path interferometer; for mass density: Vibrating tube method
[2] = xn = mol fraction of the nth substance listed; conditions: 298.15 K, 101.33 kPa, Liquid; for viscosity: Capillary tube (Ostwald / Ubbelohde) method; for speed of sound: Sing-around technique in a fixed-path interferometer; for mass density: Vibrating tube method

CC(C)c1ccccc1 [isopropylbenzene]
[1]
Conditions | mass density [kg/m3] | speed of sound [m/s] | viscosity [mPa·s]
– | 857.1 | 1338 | 0.739

CC(=O)CC(C)C [4-methylpentan-2-one] + Cc1ccc(C)cc1
[2]
Conditions | mass density [kg/m3] | speed of sound [m/s] | viscosity [mPa·s]
x2 = 0 | 796 | 1215 | 0.55
x2 = 0.059 | 800.1 | 1215 | 0.553
x2 = 0.1454 | 805.8 | 1226 | 0.556
x2 = 0.2887 | 814.9 | 1248 | 0.562
x2 = 0.4325 | 823.6 | 1267 | 0.567
x2 = 0.5735 | 832.2 | 1284 | 0.572
x2 = 0.7166 | 840.5 | 1300 | 0.579
x2 = 0.8587 | 848.4 | 1311 | 0.591
x2 = 0.9419 | 853 | 1315 | 0.6

Cc1ccccc1C [1,2-dimethylbenzene]
[1]
Conditions | mass density [kg/m3] | speed of sound [m/s] | viscosity [mPa·s]
– | 875.2 | 1349 | 0.769

CC(=O)CC(C)C [4-methylpentan-2-one]
[1]
Conditions | mass density [kg/m3] | speed of sound [m/s] | viscosity [mPa·s]
– | 796 | 1215 | 0.55

Cc1cccc(C)c1 [1,3-dimethylbenzene]
[1]
Conditions | mass density [kg/m3] | speed of sound [m/s] | viscosity [mPa·s]
– | 859.4 | 1323 | 0.587

CC(=O)CC(C)C [4-methylpentan-2-one] + Cc1cccc(C)c1
[2]
Conditions | mass density [kg/m3] | speed of sound [m/s] | viscosity [mPa·s]
x2 = 0 | 796 | 1215 | 0.55
x2 = 0.0586 | 801.4 | 1207 | 0.554
x2 = 0.1483 | 809.5 | 1212 | 0.558
x2 = 0.2898 | 821.2 | 1233 | 0.564
x2 = 0.4312 | 830.5 | 1257 | 0.567
x2 = 0.5762 | 837.4 | 1280 | 0.569
x2 = 0.7187 | 842.8 | 1299 | 0.572
x2 = 0.8591 | 849 | 1314 | 0.577
x2 = 0.9429 | 854.4 | 1321 | 0.582

CC(=O)CC(C)C [4-methylpentan-2-one] + CC(C)c1ccccc1
[2], x2 = 0
Conditions | mass density [kg/m3] | speed of sound [m/s] | viscosity [mPa·s]
– | 796 | 1215 | 0.55

CC(C)c1ccccc1 [isopropylbenzene] + CC(=O)CC(C)C
[2]
Conditions | mass density [kg/m3] | speed of sound [m/s] | viscosity [mPa·s]
x1 = 0.0518 | 799.4 | 1227 | 0.563
x1 = 0.1305 | 804.6 | 1231 | 0.579
x1 = 0.2631 | 813.4 | 1234 | 0.6
x1 = 0.4022 | 822.6 | 1246 | 0.621
x1 = 0.5439 | 831.5 | 1262 | 0.645
x1 = 0.6917 | 840.3 | 1282 | 0.672
x1 = 0.842 | 848.7 | 1309 | 0.704
x1 = 0.9355 | 853.7 | 1325 | 0.725
x1 = 1 | 857.1 | 1338 | 0.739

Cc1ccccc1C [1,2-dimethylbenzene] + CC(=O)CC(C)C
[2], x1 = 1
Conditions | mass density [kg/m3] | speed of sound [m/s] | viscosity [mPa·s]
– | 875.2 | 1349 | 0.769

Cc1cccc(C)c1 [1,3-dimethylbenzene] + CC(=O)CC(C)C
[2], x1 = 1
Conditions | mass density [kg/m3] | speed of sound [m/s] | viscosity [mPa·s]
– | 859.4 | 1323 | 0.587

Cc1ccc(C)cc1 [1,4-dimethylbenzene]
[1]
Conditions | mass density [kg/m3] | speed of sound [m/s] | viscosity [mPa·s]
– | 856.1 | 1316 | 0.609

CC(=O)CC(C)C [4-methylpentan-2-one] + Cc1ccccc1C
[2]
Conditions | mass density [kg/m3] | speed of sound [m/s] | viscosity [mPa·s]
x2 = 0 | 796 | 1215 | 0.55
x2 = 0.0598 | 801.3 | 1214 | 0.562
x2 = 0.1483 | 808.9 | 1220 | 0.577
x2 = 0.2932 | 820.7 | 1237 | 0.605
x2 = 0.4368 | 832.2 | 1263 | 0.631
x2 = 0.582 | 843.4 | 1294 | 0.662
x2 = 0.7227 | 854.5 | 1318 | 0.694
x2 = 0.8635 | 865.1 | 1336 | 0.73
x2 = 0.9457 | 871.2 | 1345 | 0.751

Cc1ccc(C)cc1 [1,4-dimethylbenzene] + CC(=O)CC(C)C
[2], x1 = 1
Conditions | mass density [kg/m3] | speed of sound [m/s] | viscosity [mPa·s]
– | 856.1 | 1316 | 0.609
